Experimental findings from patent US4416870A, “Antibiotic compound, its production and its medicinal use” (Bayer Aktiengesellschaft, priority 1981, dated 1983) are described below.

*1 amine or outer side, *2 acyl side, *3 side chain or, on linkers, in order; H or OH if unused. Where a SMILES comes first, the peptide text is derived from it. [ ]: non-standard residue; d: D form. ξ: configuration not given here. X1 = Cn1c(=O)ccn(C2SC(C(O)C(N[*:1])C(=O)[*:2])C(O)C2O)c1=O; ξOrn(N(OH)Ac) = CC(=O)N(O)CCCC(N)C(=O)O; ξS = NC(CO)C(=O)O

The nature of one data set: physchem. As to conditions: organic solvent or mixture.
Data set [1] deals with E. coli Neumann. In words: White mouse, ED100 (complete cure) on infection with E. coli Neumann, single subcutaneous application. As to conditions: Escherichia coli, sc, 0.5 h, once, 30 minutes after infection, subcutaneously. Format: in vivo, white mouse infected with E. coli. The protocol:
For the white mouse, an ED100 (complete cure) is found in vivo, at 3 mg of antibiotic/kg of body weight, on infection with E. coli Neumann; therapy: application once, 30 minutes after infection, subcutaneously.

The subject of another data set is Klebsiella pneumoniae 63. As to the kind of experiment: Animal test (mice), ED100 after intraperitoneal infection and subcutaneous treatment (Example B). Format: in vivo, mice infected with Klebsiella pneumoniae. The conditions noted are these: sc, dose at which all infected and treated animals survive. The protocol: (§1) BAYi 3265 component A animal test (mice) | ED100 after intraperitoneal | infection and subcutaneous |Infecting germ treatment in mg/kg The animals were infected with a quantity of bacteria, which quantity led to the death of the control animals within 24 hours. The ED100 was the dose which allowed all infected and treated animals to survive.

The subject of data set [2] is E. coli Neumann. The data set is described as above. Format: in vivo, mice infected with E. coli. The conditions noted are these: Escherichia coli, sc, dose at which all infected and treated animals survive. How it is done: as §1
For the next data set, the system named is E. coli 205 Kn. The data set is described as above. Format: in vivo, mice infected with E. coli. As to conditions: Escherichia coli, sc, dose at which all infected and treated animals survive. How it is done: as §1

Regarding `CC(=O)N(O)CCCC(N)C(=O)NC(CCCN(O)C(C)=O)C(=O)NC(CCCN(O)C(C)=O)C(=O)NC(CO)C(=O)NC(C(=O)O)C(O)C1SC(n2ccc(=O)n(C)c2=O)C(O)C1O` (centres unmarked) [BAYi 3265 Component A] (H-[ξOrn(N(OH)Ac)][ξOrn(N(OH)Ac)][ξOrn(N(OH)Ac)][ξS][X1]-OH), the solubility is under 100 µg/mL in “physchem” (chloroform); under 10000 µg/mL in “physchem” (dimethylformamide); under 10000 µg/mL in the data set “physchem” (dimethylsulphoxide); under 100 µg/mL in “physchem” (ether); under 100 µg/mL in the data set “physchem” (ethyl acetate); under 10000 µg/mL in “physchem” (methanol). Moreover, the solubility in “physchem” (petroleum ether) was under 100 µg/mL. In addition, the ED100 in the data set with E. coli Neumann [1] amounted to 3 mg/kg; with Klebsiella pneumoniae 63 it was 0.2 mg/kg; in the data set on E. coli Neumann [2], 0.5 mg/kg; with E. coli 205 Kn, 0.1 mg/kg.

For orientation: solubility means the dissolved amount per volume that the medium holds.
